Measurements as given in US11833256B2, “Selective RARγ ligand-loaded nanoparticles for manipulation of targeted bone growth” (University Of Maryland, Baltimore, priority 2017, dated 2023).
Each block holds one compound with its values, some of them ahead of it.

Experiments:
[1] = Nanoparticle characterisation (size, drug loading); details: in PLA-based NP
Procedure: The drug loading of NP was determined spectrophotometrically against suitable calibration curves following two-step drug extraction in sec-butanol. Particle size measurements were performed by dynamic light scattering using a 90 Plus Particle Size Analyzer. An external sink method was applied for measuring drug release kinetics under sink conditions as follows: NP were diluted in PBS/2% bovine serum albumin and incubated with a water-immiscible acceptor medium (1-octanol and n-heptane, 1:1 v/v), and the released drug assayed spectrophotometrically in the acceptor medium samples at predetermined time-points.

Chick limb bud cells = test: Limb bud cell high density culture, cartilage matrix by Alcian blue; assay type: cell-based; details: RA 1 μM or AGN194310 100 nM for 6 days
Procedure: The limb bud cells were inoculated at a high density and treated with retinoids. Cartilage matrix accumulation was visualized by Alcian blue staining. […] Similar testing was described in Hoffman et al., J. Cell. Biol. 174:101-113, 2006. Chick limb bud cells were isolated from […], seeded at the density of 4×10^5 cells in 10 μL and maintained in 1% FBS containing high glucose DMEM for 3 days. Cultures then were treated with 0.1% EtOH (vehicle), retinoic acid (RA) 1 μM or AGN194310 100 nM for 6 days, fixed, and stained with Alcian Blue, pH 1.0.

[2] = tested on: heterotopic ossification (HO) in FOP patients; details: systemic palovarotene; top-line results of ongoing Phase II trial; cited from earlier work
[3] = tested on: heterotopic ossification (HO); test: Heterotopic ossification in FOP model mice, oral palovarotene; assay type: in vivo, mouse; details: oral administration
Text: As discussed above, control and adjustment of specific long bone growth dysregulation requires achieving a highly localized and sustained therapeutic effect. Today, surgical resection combined with systemically administered anti-inflammatory drugs is the primary treatment modality for acquired HO. Treatment options for FOP are further limited. Because the surgical procedure itself can induce additional HO formation, systemic drug therapy aimed at reducing HO progression and related symptoms is the sole choice. […] However, despite the significant reduction in HO with this treatment regimen, systemic administration of the RARγ agonist fails to completely prevent the disease. Enhancing efficacy by increasing the systemic drug dosage may not be possible without causing strong and even toxic off-target effects. Thus, the inventive methods of treatment here increase the activity at the target site without inducing unwanted systemic effects using biodegradable nanoparticle (NP) formulations impregnated with a potent RARγ agonist capable of targeting specific areas of bone.
Acvr1cR206H/+; R26-rtTA; tetO-cre mice, treated with doxycycline to induce global expression of Acvr1cR206H/+, were subjected to hindlimb muscle injury with cardiotoxin and examined by μCT imaging 14 days after treatment with palovarotene (right) or vehicle (left). […]

RARγ = target: T1, RARγ (Homo sapiens, UniProt P13631); test: Potency (ED50/EC50) of RARγ agonists
T1 sequence (P13631 1-454): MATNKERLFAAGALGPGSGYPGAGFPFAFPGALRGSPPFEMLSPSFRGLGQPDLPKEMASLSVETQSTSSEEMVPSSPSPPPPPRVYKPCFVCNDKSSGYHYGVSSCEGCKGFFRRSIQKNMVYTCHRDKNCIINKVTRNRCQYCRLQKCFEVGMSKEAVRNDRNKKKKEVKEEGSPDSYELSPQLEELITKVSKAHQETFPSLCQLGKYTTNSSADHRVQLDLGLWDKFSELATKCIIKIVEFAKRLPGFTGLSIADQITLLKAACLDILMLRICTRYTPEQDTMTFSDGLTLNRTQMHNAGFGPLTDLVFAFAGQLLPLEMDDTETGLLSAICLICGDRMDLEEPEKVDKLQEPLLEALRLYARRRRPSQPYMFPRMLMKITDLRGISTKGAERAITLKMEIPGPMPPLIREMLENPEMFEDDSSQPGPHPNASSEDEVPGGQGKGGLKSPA

[4] = Hydrophobicity of acetaminophen-capped prodrug derivative versus parent; assay type: physicochemical; details: acetaminophen-capped derivative vs parent retinoid
Text: In order to produce an in situ activatable, reversibly hydrophobized prodrug derivatives of a RARγ agonist, a pro-drug can be delivered in a nanoparticle formulation. […] However, the ionizable carboxylic group promotes the partitioning of the compound from the particle to the surrounding aqueous medium. […] The compound would be activatable upon release can increase the stability of the particle-cargo association and help achieve a more lasting and highly localized therapeutic effect. Such constructs are in essence mutual prodrugs or co-drugs, as they regenerate in one step the retinoid compound and acetaminophen, a biologically active “helper” agent, which can play an important supporting role in therapy.

average particle size [1]: 565 nm | drug loading [1]: 1 mg/mL | entrapment yield [1]: 67% | polydispersity index [1]: < 0.1
Compound: CC(=O)Nc1ccc(OC(=O)c2ccc3cc(C4(c5ccc6c(c5)C(C)(C)CCC6(C)C)SCCS4)ccc3c2)cc1 [MM 11253 prodrug]

Compound: CCc1ccc(C2=CC(C)(C)Sc3ccc(C#Cc4ccc(C(=O)O)cc4)cc32)cc1 [AGN194310]
cartilage matrix production / cartilage forming region (Alcian blue) (Chick limb bud cells): enhanced

potency (EC50) compared with NRX204647 (RARγ): inferior to that of NRX204647 | more hydrophobic derivative if modified with acetaminophen [4]: 15 fold
Compound: CC1(C)CCC(C)(C)c2cc(Cn3cccn3)c(/C=C/c3ccc(C(=O)O)cc3)cc21 [palovarotene]
reduction of HO in patients [2]: up to 70% | HO in FOP model mice [3]: effectively reduces HO
